Results reported in patent US20240158446A1, “CYCLIC COMPOUND HAVING SELECTIVE INHIBITORY ACTION ON KRAS OVER HRAS AND NRAS” (CHUGAI SEIYAKU KABUSHIKI KAISHA, priority 2021, published 2024).
Like-named read-outs stand apart in the source and are kept apart here.

Experiments:
[1] = target: GDP-bound KRAS wild-type protein (Homo sapiens, UniProt P01116); assay: Binding to KRAS by surface plasmon resonance (SPR), Single Cycle Kinetics; conditions: GDP-bound KRAS wild-type protein, read-out: KRAS KD
Sequence of GDP-bound KRAS wild-type protein (P01116 whole entry): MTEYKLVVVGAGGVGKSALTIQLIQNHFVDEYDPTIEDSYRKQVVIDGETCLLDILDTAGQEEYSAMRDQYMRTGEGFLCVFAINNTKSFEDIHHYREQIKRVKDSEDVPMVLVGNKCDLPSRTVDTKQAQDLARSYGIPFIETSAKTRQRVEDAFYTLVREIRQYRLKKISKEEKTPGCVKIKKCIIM

[2] = test system: human lung cancer strain NCI-H441;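 note: cell proliferation inhibition after four days measured by CellTiter-Glo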
[3] = target: GDP-bound NRAS wild-type protein (Homo sapiens, UniProt P01111); assay: Binding to NRAS by surface plasmon resonance (SPR), Single Cycle Kinetics; conditions: for NRAS/KRAS (ratio of KD value for NRAS to KD value for KRAS): GDP-bound NRAS wild-type protein vs GDP-bound KRAS wild-type protein; for NRAS/KRAS (ratio of KD value with respect to GDP-bound NRAS wild-type protein to KD value with respect to KRAS): SPR KD ratio NRAS/KRAS, class symbols
Sequence of GDP-bound NRAS wild-type protein (P01111 whole entry): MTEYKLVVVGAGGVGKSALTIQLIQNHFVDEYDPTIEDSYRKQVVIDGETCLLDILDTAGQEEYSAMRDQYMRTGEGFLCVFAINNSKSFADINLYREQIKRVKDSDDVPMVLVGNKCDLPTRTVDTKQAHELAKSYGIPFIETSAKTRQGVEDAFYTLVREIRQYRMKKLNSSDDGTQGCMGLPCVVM

[4] = target: GDP-bound HRAS wild-type protein (Homo sapiens, UniProt P01112); assay: Binding to HRAS by surface plasmon resonance (SPR), Single Cycle Kinetics; conditions: for HRAS/KRAS (ratio of KD value for HRAS to KD value for KRAS): GDP-bound HRAS wild-type protein vs GDP-bound KRAS wild-type protein; for HRAS/KRAS (ratio of KD value with respect to GDP-bound HRAS wild-type protein to KD value with respect to KRAS): SPR KD ratio HRAS/KRAS, class symbols
Sequence of GDP-bound HRAS wild-type protein (P01112 whole entry): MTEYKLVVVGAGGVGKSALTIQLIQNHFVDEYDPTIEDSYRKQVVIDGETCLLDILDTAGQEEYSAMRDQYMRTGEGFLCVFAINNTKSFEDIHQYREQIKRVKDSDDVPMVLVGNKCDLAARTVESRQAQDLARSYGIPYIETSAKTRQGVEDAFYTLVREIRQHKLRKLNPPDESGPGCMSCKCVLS

[5] = SPR Single Cycle Kinetics, 1:1 binding model
[6] = SPR, Single Cycle Kinetics, 1:1 binding model

Compound	Kd ([1]; SPR, Single Cycle Kinetics)	IC50 [2]	Kd [1, 6]	NRAS/KRAS (ratio of KD value for NRAS to KD value for KRAS) ([3]; SPR)	HRAS/KRAS (ratio of KD value for HRAS to KD value for KRAS) ([4]; SPR)	NRAS/KRAS (ratio of KD value for NRAS to KD value for KRAS) ([3]; SPR, KD ratio class)	HRAS/KRAS (ratio of KD value for HRAS to KD value for KRAS) ([4]; SPR, KD ratio class)	other results
CC[C@H](C)[C@@H]1NC(=O)[C@H](COC)N(C)C(=O)C[C@@H](C(=O)N(C)C)N(C)C(=O)[C@H](C2CCCC2)N(C)C(=O)C2(CC(C)(C)C2)NC(=O)[C@@H]2C[C@@H](OC3CCCC3)CN2C(=O)[C@H](CCc2cc(F)c(C(F)(F)F)c(F)c2)NC(=O)CN(C)C(=O)[C@H](CC2CCCCC2)N2CC/C=C\C[C@@H](C2=O)N(C)C(=O)CN(C2CC2)C1=O [PP2630]		190 nM						Kd [1, 5]: 3 nM; NRAS/KRAS (ratio of KD value with respect to GDP-bound NRAS wild-type protein to KD value with respect to KRAS) [3]: A (a compound having 10 or more and less than 20 is denoted as A); HRAS/KRAS (ratio of KD value with respect to GDP-bound HRAS wild-type protein to KD value with respect to KRAS) [4]: B (a compound having 3 or more and less than 10 is denoted as B)
CCO[C@@H]1C[C@H]2C(=O)NC3(CCC3)C(=O)N(C)[C@@H](C3CCCC3)C(=O)N(C)[C@H](C(=O)N3CCOCC3)CC(=O)N(C)[C@@H](CC3CCCCC3)C(=O)N[C@@H]([C@@H](C)CC)C(=O)N(C)CC(=O)N(C)[C@H]3C/C=C\CCN(C3=O)[C@@H](Cc3ccc(C(F)(F)F)cc3)C(=O)N(C)CC(=O)N[C@@H](CCc3cc(F)c(C(F)(F)F)c(F)c3)C(=O)N2C1 [PP1418]		29.9 nM	0.24 nM			AA (a compound having 20 or more is denoted as AA)	A (a compound having 10 or more and less than 20 is denoted as A)	
CCCOC[C@H]1C(=O)N[C@@H]([C@@H](C)CC)C(=O)N(C)CC(=O)N(C)[C@H]2C/C=C\CCN(C2=O)[C@@H](Cc2ccc(C)cc2)C(=O)N(C)CC(=O)N[C@@H](CCc2ccc(C(F)(F)F)c(OC)c2)C(=O)N2C[C@H](OCC)C[C@H]2C(=O)NC2(CC(C)(C)C2)C(=O)N(C)[C@@H](C2CCCC2)C(=O)N(C)[C@H](C(=O)N(C)C)CC(=O)N1C [PP2449]	0.061 nM	7.8 nM		A (a compound having 10 or more and less than 20 is denoted as A)	A (a compound having 10 or more and less than 20 is denoted as A)			
CCO[C@@H]1C[C@H]2C(=O)NC3(CCC3)C(=O)N(C)[C@@H](C(CC)CC)C(=O)N(C)[C@H](C(=O)N(C)C)CC(=O)N(C)[C@@H](CC3CCCC3)C(=O)N[C@@H]([C@@H](C)CC)C(=O)N(C)CC(=O)N(C)[C@H]3C/C=C\CCN(C3=O)[C@@H](Cc3ccc(C(F)(F)F)cc3)C(=O)N(C)CC(=O)N[C@@H](CCc3ccc(C(F)(F)F)c(OC)c3)C(=O)N2C1 [PP1212]		35.6 nM	0.28 nM			AA (a compound having 20 or more is denoted as AA)	A (a compound having 10 or more and less than 20 is denoted as A)	
CCO[C@@H]1C[C@H]2C(=O)NC3(CC(C)(C)C3)C(=O)N(C)[C@@H](C3CCCC3)C(=O)N(C)[C@H](C(=O)N(C)C)CC(=O)N(C)[C@@H](CC)C(=O)N[C@@H]([C@@H](C)CC)C(=O)N(C)CC(=O)N(C)[C@H]3C/C=C\CCN(C3=O)[C@@H](Cc3ccc(C(F)(F)F)cc3)C(=O)N(C)CC(=O)N[C@@H](CCc3cc(F)c(C(F)(F)F)c(F)c3)C(=O)N2C1 [PP1275, (2S,8S,12R,14S,20S,23S,27S,30S,36S,38Z)-20-cyclopentyl-8-[2-[3,5-difluoro-4-(trifluoromethyl)phenyl]ethyl]-12-ethoxy-27-ethyl-N,N,3′,3′,4,19,22,26,32,35-decamethyl-30-[(1S)-1-methylpropyl]-3,6,9,15,18,21,25,28,31,34,42-undecaoxo-2-[[4-(trifluoromethyl)phenyl]methyl]spiro[1,4,7,10,16,19,22,26,29,32,35-undecazatricyclo[34.5.1.0^10,14]dotetracont-38-ene-17,1′-cyclobutane]-23-carboxamide]		4.9 nM	0.047 nM			A (a compound having 10 or more and less than 20 is denoted as A)	A (a compound having 10 or more and less than 20 is denoted as A)	
CCC[C@H]1C(=O)N[C@@H]([C@@H](C)CC)C(=O)N(C)CC(=O)N(C)[C@H]2C/C=C\CCN(C2=O)[C@@H](Cc2ccc(C(F)(F)F)cc2)C(=O)N(C)CC(=O)N[C@@H](CCc2ccc(C(F)(F)F)c(OC)c2)C(=O)N2C[C@@H](C)C[C@H]2C(=O)N(C)C2(CCC2)C(=O)N(C)[C@@H](C2CCCC2)C(=O)N(C)[C@H](C(=O)N(C)C)CC(=O)N1C [PP2358]	0.02 nM	2.5 nM		A (a compound having 10 or more and less than 20 is denoted as A)	B (a compound having 3 or more and less than 10 is denoted as B)			

More lines, main results first:

Kd ([1]; SPR, Single Cycle Kinetics)	IC50 [2]	Kd [1, 6]	Compound	NRAS/KRAS (ratio of KD value for NRAS to KD value for KRAS) ([3]; SPR)	HRAS/KRAS (ratio of KD value for HRAS to KD value for KRAS) ([4]; SPR)	NRAS/KRAS (ratio of KD value for NRAS to KD value for KRAS) ([3]; SPR, KD ratio class)	HRAS/KRAS (ratio of KD value for HRAS to KD value for KRAS) ([4]; SPR, KD ratio class)	other results
0.15 nM	21 nM		CCO[C@H](C)[C@@H]1NC(=O)[C@H](CC(C)C)N(C)C(=O)C[C@@H](C(=O)N(C)C)N(C)C(=O)[C@H](C2CCCC2)N(C)C(=O)C2(CC(C)(C)C2)NC(=O)[C@@H]2C[C@H](C)CN2C(=O)[C@H](CCc2ccc(C(F)(F)F)c(OC)c2)NC(=O)CN(C)C(=O)[C@H](Cc2ccc(C)cc2)N2CC/C=C\C[C@@H](C2=O)N(C)C(=O)CN(C)C1=O [PP2412]	A (a compound having 10 or more and less than 20 is denoted as A)	B (a compound having 3 or more and less than 10 is denoted as B)			
	30.2 nM	0.081 nM	CCO[C@@H]1C[C@H]2C(=O)NC3(CCC3)C(=O)N(C)[C@@H](C3CCCC3)C(=O)N(C)[C@H](C(=O)N(C)C)CC(=O)N(C)[C@@H](CC3CC3)C(=O)N[C@@H]([C@@H](C)CC)C(=O)N(C)CC(=O)N(C)[C@H]3C/C=C\CCN(C3=O)[C@@H](Cc3ccc(F)cc3)C(=O)N(C)CC(=O)N[C@@H](CCc3cc(F)c(C(F)(F)F)c(F)c3)C(=O)N2C1 [PP1529, (2S,8S,12R,14S,20S,23S,27S,30S,36S,38Z)-20-cyclopentyl-27-(cyclopropylmethyl)-8-[2-[3,5-difluoro-4-(trifluoromethyl)phenyl]ethyl]-12-ethoxy-2-[(4-fluorophenyl)methyl]-N,N,4,19,22,26,32,35-octamethyl-30-[(1S)-1-methylpropyl]-3,6,9,15,18,21,25,28,31,34,42-undecaoxo-spiro[1,4,7,10,16,19,22,26,29,32,35-undecazatricyclo[34.5.1.0^10,14]dotetracont-38-ene-17,1′-cyclobutane]-23-carboxamide]			A (a compound having 10 or more and less than 20 is denoted as A)	B (a compound having 3 or more and less than 10 is denoted as B)	
0.33 nM			CCCO[C@@H]1C[C@H]2C(=O)NC3(CC(C)(C)C3)C(=O)N(C)[C@@H](C3CCCC3)C(=O)N(C)[C@H](C(=O)N(C)CC)CC(=O)N(C)[C@H]3CCCc4ccc(cc4)C[C@@H](C(=O)N(C)CC(=O)N[C@@H](CCc4ccc(Cl)c(Cl)c4)C(=O)N2C1)N1CC/C=C\C[C@@H](C1=O)N(C)C(=O)CN(C)C(=O)[C@H]([C@@H](C)CC)NC3=O [PP3089]	B (a compound having 3 or more and less than 10 is denoted as B)	B (a compound having 3 or more and less than 10 is denoted as B)			IC50 ([2]; read-out: NCI-H441 cell proliferation inhibitory activity, 50% proliferation inhibitory concentration (IC50 value), NCI-H441, four days, CellTiter-Glo): 27 nM; ratio of the KD value with respect to GDP-bound NRAS wild-type protein to the KD value with respect to KRAS ([3]; SPR, KD(NRAS)/KD(KRAS)): B (a compound having 3 or more and less than 10 is denoted as B); ratio of the KD value with respect to GDP-bound HRAS wild-type protein to the KD value with respect to KRAS ([4]; SPR, KD(HRAS)/KD(KRAS)): B (a compound having 3 or more and less than 10 is denoted as B)
	7.7 nM		CCO[C@@H]1C[C@H]2C(=O)NC3(CC(C)(C)C3)C(=O)N(C)[C@@H](C(CC)CC)C(=O)N(C)[C@H](C(=O)N(C)C)CC(=O)N(C)[C@H]3CCC/C=C/c4ccc(cc4)C[C@@H](C(=O)N(C)CC(=O)N[C@@H](CCc4cc(F)c(C(F)(F)F)c(F)c4)C(=O)N2C1)N1CC/C=C\C[C@@H](C1=O)N(C)C(=O)CN(C1CC1)C(=O)[C@H]([C@@H](C)CC)NC3=O [PP2955]					Kd [1, 5]: 0.14 nM; NRAS/KRAS (ratio of KD value with respect to GDP-bound NRAS wild-type protein to KD value with respect to KRAS) [3]: A (a compound having 10 or more and less than 20 is denoted as A); HRAS/KRAS (ratio of KD value with respect to GDP-bound HRAS wild-type protein to KD value with respect to KRAS) [4]: A (a compound having 10 or more and less than 20 is denoted as A)
0.15 nM	10.6 nM		CCCOC[C@H]1C(=O)N[C@@H]([C@@H](C)CC)C(=O)N(C)CC(=O)N(C)[C@H]2C/C=C\CCN(C2=O)[C@@H](Cc2ccc(C)cc2)C(=O)N(C)CC(=O)N[C@@H](CCc2ccc(C(F)(F)F)c(OC)c2)C(=O)N2C[C@@H](C)C[C@H]2C(=O)NC2(CC(C)(C)C2)C(=O)N(C)[C@@H](C2CCCC2)C(=O)N(C)[C@H](C(=O)N(C)CC)CC(=O)N1C [PP2461]	A (a compound having 10 or more and less than 20 is denoted as A)	A (a compound having 10 or more and less than 20 is denoted as A)			
0.22 nM	7.2 nM		CCO[C@@H]1C[C@H]2C(=O)NC3(CC(C)(C)C3)C(=O)N(C)[C@@H](C3CCCC3)C(=O)N(C)[C@H](C(=O)N(CC)CC)CC(=O)N(C)[C@@H](COC)C(=O)N[C@@H]([C@@H](C)CC)C(=O)N(C)CC(=O)N(C)[C@H]3C/C=C\CCN(C3=O)[C@@H](Cc3ccc(C)cc3)C(=O)N(C)CC(=O)N[C@@H](CCc3cc(F)c(C(F)(F)F)c(F)c3)C(=O)N2C1 [PP2403]	A (a compound having 10 or more and less than 20 is denoted as A)	A (a compound having 10 or more and less than 20 is denoted as A)			
